Experimental data published in PubChem BioAssay AID1963444 (Molecular Pharmacology Branch, DTP, NCI, 2024).
Several values for one entry are separate records, joined by “and”; a condition that tells them apart may be missing. Equal values may be shown once.

Test system: HSSY-II complex spheroid growth, percent test/control
Test: Anticancer human tumor HSSY-II cell line growth inhibition [Asc];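 note: spheroids exposed to drug for 7 days before reading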
Conditions: for viability, T/C: stronger effect = lower value
In short: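 Complex spheroids combining tumor cells with HUVEC endothelial cells and human MSCs, at 37 degrees C, 5% CO2; agents tested alone or combined, half-log dilutions from at or near clinical Cmax, or 10 microM if Cmax unknown.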

[1] = curve of first compound, second compound 0.01 µM
[2] = curve of first compound, second compound 0.0316 µM
[3] = curve of first compound, second compound 0.1 µM
[4] = curve of first compound, second compound 0.316 µM
[5] = curve of first compound, second compound 1 µM
[6] = second compound 0.01 µM, first compound 0.0316 µM
[7] = second compound 0.01 µM, first compound 0.1 µM
[8] = second compound 0.0316 µM, first compound 0.0316 µM
[9] = second compound 0.0316 µM, first compound 0.1 µM
[10] = second compound 0.1 µM, first compound 0.0316 µM
[11] = second compound 0.1 µM, first compound 0.1 µM
[12] = second compound 0.316 µM, first compound 0.0316 µM
[13] = second compound 0.316 µM, first compound 0.1 µM
[14] = second compound 1 µM, first compound 0.0316 µM
[15] = second compound 1 µM, first compound 0.1 µM

`O=C(c1cc(Cc2n[nH]c(=O)c3ccccc23)ccc1F)N1CCN(C(=O)C2CC2)CC1` + CCN1C(C(=O)NC23CCC(C(=O)O)(CC2)CC3)C(c2cccc(Cl)c2F)C2(C(=O)Nc3cc(Cl)ccc32)C12CCCCC2 was tested, and the IC50 (curve of first compound, second compound 0.03 µM) was 1760 nM, the IC50 (curve of first compound, second compound 0.0949 µM) was 196 nM and the IC50 (curve of first compound, second compound 0.3 µM) was < 31.6 nM. For the same compound, the IC50 (curve of first compound, second compound 0.949 µM) was < 31.6 nM, the IC50 (curve of first compound, second compound 3 µM) was < 31.6 nM and the viability, T/C (second compound 0.03 µM, first compound 0.0316 µM) was 81.5%. For the same compound, the viability, T/C (second compound 0.03 µM, first compound 0.1 µM) was 75.1%, the viability, T/C (second compound 0.03 µM, first compound 0.316 µM) was 84.5% and the viability, T/C (second compound 0.03 µM, first compound 1 µM) was 63.6%. The viability, T/C (second compound 0.03 µM, first compound 3.16 µM) was 34.5%, the viability, T/C (second compound 0.03 µM, first compound 10 µM) was 14.1% and the viability, T/C (second compound 0.0949 µM, first compound 0.0316 µM) was 52.9%. For the same compound, the viability, T/C (second compound 0.0949 µM, first compound 0.1 µM) was 52.4%, the viability, T/C (second compound 0.0949 µM, first compound 0.316 µM) was 47.2% and the viability, T/C (second compound 0.0949 µM, first compound 1 µM) was 38.5%. It also gave a viability, T/C (second compound 0.0949 µM, first compound 3.16 µM) of 18.7%, a viability, T/C (second compound 0.0949 µM, first compound 10 µM) of 9.39% and a viability, T/C (second compound 0.3 µM, first compound 0.0316 µM) of 23.5%. For the same compound, the viability, T/C (second compound 0.3 µM, first compound 0.1 µM) was 20.9%, the viability, T/C (second compound 0.3 µM, first compound 0.316 µM) was 18.3% and the viability, T/C (second compound 0.3 µM, first compound 1 µM) was 15.5%. It also gave a viability, T/C (second compound 0.3 µM, first compound 3.16 µM) of 9.8%, a viability, T/C (second compound 0.3 µM, first compound 10 µM) of 6.14% and a viability, T/C (second compound 0.949 µM, first compound 0.0316 µM) of 6.91%. For the same compound, the viability, T/C (second compound 0.949 µM, first compound 0.1 µM) was 7.91%, the viability, T/C (second compound 0.949 µM, first compound 0.316 µM) was 6.69% and the viability, T/C (second compound 0.949 µM, first compound 1 µM) was 7.17%. For the same compound, the viability, T/C (second compound 0.949 µM, first compound 3.16 µM) was 6.79%, the viability, T/C (second compound 0.949 µM, first compound 10 µM) was 5.66% and the viability, T/C (second compound 3 µM, first compound 0.0316 µM) was 3.25%. For the same compound, the viability, T/C (second compound 3 µM, first compound 0.1 µM) was 2.79%, the viability, T/C (second compound 3 µM, first compound 0.316 µM) was 3.26% and the viability, T/C (second compound 3 µM, first compound 1 µM) was 2.73%. For the same compound, the viability, T/C (second compound 3 µM, first compound 3.16 µM) was 2.56% and the viability, T/C (second compound 3 µM, first compound 10 µM) was 3.28%.

`Cn1ncnc1[C@H]1c2n[nH]c(=O)c3cc(F)cc(c23)N[C@@H]1c1ccc(F)cc1` + CNC(C)C(=O)NC1CN(S(=O)(=O)c2cccc(S(=O)(=O)N3CCC4CCC(C(=O)NC(c5ccccc5)c5ccccc5)N4C(=O)C(NC(=O)C(C)NC)C3)c2)CCC2CCC(C(=O)NC(c3ccccc3)c3ccccc3)N2C1=O was tested, and the IC50 [1] was > 100 nM, the IC50 [2] was 22.5 nM and the IC50 [3] was 24.3 nM. It also gave an IC50 [4] of 15.3 nM, an IC50 [5] of 82.5 nM and a viability, T/C (second compound 0.01 µM, first compound 0.000316 µM) of 86.3%. For the same compound, the viability, T/C (second compound 0.01 µM, first compound 0.001 µM) was 86%, the viability, T/C (second compound 0.01 µM, first compound 0.00316 µM) was 87.1% and the viability, T/C (second compound 0.01 µM, first compound 0.01 µM) was 59.3%. The viability, T/C [6] was 43.4%, the viability, T/C [7] was 59.6% and the viability, T/C (second compound 0.0316 µM, first compound 0.000316 µM) was 91.1%. For the same compound, the viability, T/C (second compound 0.0316 µM, first compound 0.001 µM) was 93.2%, the viability, T/C (second compound 0.0316 µM, first compound 0.00316 µM) was 80.8% and the viability, T/C (second compound 0.0316 µM, first compound 0.01 µM) was 60.7%. It also gave a viability, T/C [8] of 36.8%, a viability, T/C [9] of 53.4% and a viability, T/C (second compound 0.1 µM, first compound 0.000316 µM) of 82.9%. It also gave a viability, T/C (second compound 0.1 µM, first compound 0.001 µM) of 67.6%, a viability, T/C (second compound 0.1 µM, first compound 0.00316 µM) of 76.1% and a viability, T/C (second compound 0.1 µM, first compound 0.01 µM) of 58.3%. For the same compound, the viability, T/C [10] was 39.6%, the viability, T/C [11] was 55.4% and the viability, T/C (second compound 0.316 µM, first compound 0.000316 µM) was 93.8%. It also gave a viability, T/C (second compound 0.316 µM, first compound 0.001 µM) of 92.5%, a viability, T/C (second compound 0.316 µM, first compound 0.00316 µM) of 80.1% and a viability, T/C (second compound 0.316 µM, first compound 0.01 µM) of 53%. It also gave a viability, T/C [12] of 37.7%, a viability, T/C [13] of 54.4% and a viability, T/C (second compound 1 µM, first compound 0.000316 µM) of 89.6%. For the same compound, the viability, T/C (second compound 1 µM, first compound 0.001 µM) was 84.5%, the viability, T/C (second compound 1 µM, first compound 0.00316 µM) was 82% and the viability, T/C (second compound 1 µM, first compound 0.01 µM) was 72.2%. For the same compound, the viability, T/C [14] was 56.4% and the viability, T/C [15] was 48.9%.

In the case of `O=C(c1cc(Cc2n[nH]c(=O)c3ccccc23)ccc1F)N1CCN(C(=O)C2CC2)CC1`, the viability, T/C (compound 0.0316 µM) is reported as 87.4% and 98% and 105%, the viability, T/C (compound 0.1 µM) is reported as 90.4% and 103% and 91.2% and the viability, T/C (compound 0.316 µM) is reported as 86.4% and 63% and 94.2%. The viability, T/C (compound 1 µM) was 78.5% and 87.6% and 98.6%, the viability, T/C (compound 3.16 µM) was 46.7% and 54.1% and 59.5% and the viability, T/C (compound 10 µM) was 15.5% and 12.1% and 11.8%. For the same compound, the IC50 (curve of compound) was 2810 nM and 3510 nM and 3970 nM.

`C=C(F)C(=O)N1CCN(c2nc(OCC3CCCN3C)nc3c2CCN(c2cccc4cccc(Cl)c24)C3)CC1CC#N` (configuration not stated) + CNC(C)C(=O)NC1CN(S(=O)(=O)c2cccc(S(=O)(=O)N3CCC4CCC(C(=O)NC(c5ccccc5)c5ccccc5)N4C(=O)C(NC(=O)C(C)NC)C3)c2)CCC2CCC(C(=O)NC(c3ccccc3)c3ccccc3)N2C1=O showed an IC50 [1] of 618 nM, an IC50 [2] of 1030 nM and an IC50 [3] of 876 nM. The IC50 [4] was 895 nM, the IC50 [5] was 650 nM and the viability, T/C [6] was 95.8%. It also gave a viability, T/C [7] of 91%, a viability, T/C (second compound 0.01 µM, first compound 0.316 µM) of 61.4% and a viability, T/C (second compound 0.01 µM, first compound 1 µM) of 45.9%. For the same compound, the viability, T/C (second compound 0.01 µM, first compound 3.16 µM) was 0.97%, the viability, T/C (second compound 0.01 µM, first compound 10 µM) was 0.1% and the viability, T/C [8] was 89.3%. The viability, T/C [9] was 80.9%, the viability, T/C (second compound 0.0316 µM, first compound 0.316 µM) was 68.7% and the viability, T/C (second compound 0.0316 µM, first compound 1 µM) was 53.9%. For the same compound, the viability, T/C (second compound 0.0316 µM, first compound 3.16 µM) was 0.93%, the viability, T/C (second compound 0.0316 µM, first compound 10 µM) was 0.1% and the viability, T/C [10] was 90%. For the same compound, the viability, T/C [11] was 91.2%, the viability, T/C (second compound 0.1 µM, first compound 0.316 µM) was 79.3% and the viability, T/C (second compound 0.1 µM, first compound 1 µM) was 47.6%. It also gave a viability, T/C (second compound 0.1 µM, first compound 3.16 µM) of 0.66%, a viability, T/C (second compound 0.1 µM, first compound 10 µM) of 0.1% and a viability, T/C [12] of 88.5%. The viability, T/C [13] was 74.5%, the viability, T/C (second compound 0.316 µM, first compound 0.316 µM) was 74.4% and the viability, T/C (second compound 0.316 µM, first compound 1 µM) was 47.8%. It also gave a viability, T/C (second compound 0.316 µM, first compound 3.16 µM) of 0.45%, a viability, T/C (second compound 0.316 µM, first compound 10 µM) of 0.12% and a viability, T/C [14] of 79.6%. The viability, T/C [15] was 80.6%, the viability, T/C (second compound 1 µM, first compound 0.316 µM) was 65.1% and the viability, T/C (second compound 1 µM, first compound 1 µM) was 41.6%. It also gave a viability, T/C (second compound 1 µM, first compound 3.16 µM) of 0.37% and a viability, T/C (second compound 1 µM, first compound 10 µM) of 0.19%.
